# Data reported in PMC10247507 (Journal of immunology (Baltimore, Md. : 1950), 2023).
# System: naïve FluNP CD4 T cells
# Test: Activation of naïve FluNP CD4 T cells by peptide-pulsed BMDC in vitro
# Format: cell-based, mouse
# Details: CD69, CD25, Nur77 assays, 2d in vitro
substance,measurement,value
"NP311–325: immunodominant, highly conserved IAV nucleoprotein (NP) epitope presented by I-A^b; parent peptide of the panel (QVYSLIRPNENPAHK)","dose for peak responses, lower than the middle peptides (A7, K5)",100 fold
